O=C(OCCO)c1ccc(C(=O)OCCO)cc1
solubility (mole fraction)
Settings	283.15 K	288.15 K	293.15 K	298.15 K	303.15 K	308.15 K	313.15 K	318.15 K	323.15 K	328.15 K
in ethanol	0.000577	0.000802	0.00113	0.00141	0.00169	0.00249	0.00315	0.00395	0.00521	0.00656
in ethylene glycol	0.000174	0.000264	0.000391	0.000554	0.000859	0.00118	0.0018	0.00255	0.0037	0.00499
in methanol	0.000772	0.00104	0.00142	0.00184	0.00238	0.00329	0.00404	0.00517	0.00656	0.00815
in water	1.7e-05	2.4e-05	3.2e-05	4.2e-05	5.8e-05	7.7e-05	9.6e-05	0.000132	0.000171	0.000221

Reference: BigSolDB 2.1
